Assay results as given in paper PMC8842743 (Journal of Alzheimer's Disease Reports, 2022).

Test system: healthy subjects
Test: Clinical liver safety laboratory data over time
Format: in vivo, human
Conditions: mean (SD)

In the case of COc1cnc(C(=O)Nc2ccc(F)c([C@]34CN(c5ncc(F)cn5)C[C@H]3CSC(N)=N4)c2)cn1 [LY3202626], the ALP (1 mg daily, Day 1 predose) is reported as 62.8 (7.6) U/L, the ALT (1 mg daily, Day 1 predose) is reported as 19.0 (11.8) U/L and the AST (1 mg daily, Day 1 predose) is reported as 18.4 (6.7) U/L. The Albumin (1 mg daily, Day 1 predose) was 43.9 (1.5) g/L, the GGT (1 mg daily, Day 1 predose) was 22.3 (14.8) U/L and the “Total Bilirubin” value (1 mg daily, Day 1 predose) was 10.7 (2.8) umol/L. The ALP (1 mg daily, Day 2) was 62.2 (8.7) U/L, the ALT (1 mg daily, Day 2) was 18.9 (11.8) U/L and the AST (1 mg daily, Day 2) was 18.4 (6.5) U/L. The Albumin (1 mg daily, Day 2) was 43.8 (3.0) g/L, the GGT (1 mg daily, Day 2) was 21.8 (15.6) U/L and the “Total Bilirubin” value (1 mg daily, Day 2) was 10.7 (2.6) umol/L. The ALP (1 mg daily, Day 3) was 62.3 (8.4) U/L, the ALT (1 mg daily, Day 3) was 18.7 (10.6) U/L and the AST (1 mg daily, Day 3) was 16.1 (4.7) U/L. The Albumin (1 mg daily, Day 3) was 43.1 (2.4) g/L, the GGT (1 mg daily, Day 3) was 20.9 (13.9) U/L and the “Total Bilirubin” value (1 mg daily, Day 3) was 8.9 (2.3) umol/L. For the same compound, the ALP (1 mg daily, Day 4) was 64.7 (10.7) U/L, the ALT (1 mg daily, Day 4) was 20.4 (10.1) U/L and the AST (1 mg daily, Day 4) was 19.6 (5.5) U/L. For the same compound, the Albumin (1 mg daily, Day 4) was 44.0 (2.4) g/L, the GGT (1 mg daily, Day 4) was 21.4 (14.5) U/L and the “Total Bilirubin” value (1 mg daily, Day 4) was 7.4 (4.2) umol/L. The ALP (1 mg daily, Day 6) was 61.0 (10.9) U/L, the ALT (1 mg daily, Day 6) was 18.9 (7.0) U/L and the AST (1 mg daily, Day 6) was 17.7 (4.8) U/L. For the same compound, the Albumin (1 mg daily, Day 6) was 43.1 (2.4) g/L, the GGT (1 mg daily, Day 6) was 19.4 (11.8) U/L and the “Total Bilirubin” value (1 mg daily, Day 6) was 8.5 (4.5) umol/L. For the same compound, the ALP (1 mg daily, Day 8) was 62.4 (11.3) U/L, the ALT (1 mg daily, Day 8) was 20.8 (8.4) U/L and the AST (1 mg daily, Day 8) was 21.3 (13.2) U/L. For the same compound, the Albumin (1 mg daily, Day 8) was 44.1 (2.0) g/L, the GGT (1 mg daily, Day 8) was 18.8 (11.5) U/L and the “Total Bilirubin” value (1 mg daily, Day 8) was 7.9 (5.0) umol/L. For the same compound, the ALP (1 mg daily, Day 10) was 62.6 (10.0) U/L, the ALT (1 mg daily, Day 10) was 24.6 (19.6) U/L and the AST (1 mg daily, Day 10) was 30.2 (39.0) U/L. For the same compound, the Albumin (1 mg daily, Day 10) was 43.3 (2.2) g/L, the GGT (1 mg daily, Day 10) was 18.7 (11.3) U/L and the “Total Bilirubin” value (1 mg daily, Day 10) was 7.2 (2.1) umol/L. For the same compound, the ALP (1 mg daily, Day 12) was 62.1 (9.7) U/L, the ALT (1 mg daily, Day 12) was 24.2 (21.2) U/L and the AST (1 mg daily, Day 12) was 26.2 (29.7) U/L. For the same compound, the Albumin (1 mg daily, Day 12) was 43.2 (1.5) g/L, the GGT (1 mg daily, Day 12) was 18.0 (9.9) U/L and the “Total Bilirubin” value (1 mg daily, Day 12) was 8.0 (2.8) umol/L. The ALP (1 mg daily, Day 14) was 61.3 (10.6) U/L, the ALT (1 mg daily, Day 14) was 22.8 (17.2) U/L and the AST (1 mg daily, Day 14) was 20.2 (13.1) U/L. For the same compound, the Albumin (1 mg daily, Day 14) was 43.6 (2.6) g/L, the GGT (1 mg daily, Day 14) was 18.0 (10.1) U/L and the “Total Bilirubin” value (1 mg daily, Day 14) was 9.1 (2.7) umol/L. The ALP (1 mg daily, Day 15) was 59.6 (9.6) U/L, the ALT (1 mg daily, Day 15) was 20.8 (15.5) U/L and the AST (1 mg daily, Day 15) was 18.3 (9.7) U/L. For the same compound, the Albumin (1 mg daily, Day 15) was 42.6 (2.2) g/L, the GGT (1 mg daily, Day 15) was 18.2 (11.0) U/L and the “Total Bilirubin” value (1 mg daily, Day 15) was 9.2 (2.5) umol/L. For the same compound, the ALP (1 mg daily, Day 17) was 63.9 (10.6) U/L, the ALT (1 mg daily, Day 17) was 23.2 (12.8) U/L and the AST (1 mg daily, Day 17) was 19.3 (6.0) U/L. The Albumin (1 mg daily, Day 17) was 46.0 (2.8) g/L, the GGT (1 mg daily, Day 17) was 20.1 (11.8) U/L and the “Total Bilirubin” value (1 mg daily, Day 17) was 8.2 (4.0) umol/L. The ALP (6 mg daily, Day 1 predose) was 64.6 (16.9) U/L, the ALT (6 mg daily, Day 1 predose) was 17.6 (5.5) U/L and the AST (6 mg daily, Day 1 predose) was 18.9 (4.0) U/L. For the same compound, the Albumin (6 mg daily, Day 1 predose) was 45.0 (1.7) g/L, the GGT (6 mg daily, Day 1 predose) was 21.6 (10.7) U/L and the “Total Bilirubin” value (6 mg daily, Day 1 predose) was 8.9 (3.6) umol/L. For the same compound, the ALP (6 mg daily, Day 2) was 66.4 (20.2) U/L, the ALT (6 mg daily, Day 2) was 17.8 (3.8) U/L and the AST (6 mg daily, Day 2) was 18.0 (3.0) U/L. The Albumin (6 mg daily, Day 2) was 45.8 (2.5) g/L, the GGT (6 mg daily, Day 2) was 21.7 (9.5) U/L and the “Total Bilirubin” value (6 mg daily, Day 2) was 9.8 (4.5) umol/L. The ALP (6 mg daily, Day 3) was 65.8 (18.6) U/L, the ALT (6 mg daily, Day 3) was 18.9 (4.7) U/L and the AST (6 mg daily, Day 3) was 17.8 (2.9) U/L. For the same compound, the Albumin (6 mg daily, Day 3) was 46.3 (2.1) g/L, the GGT (6 mg daily, Day 3) was 22.3 (11.2) U/L and the “Total Bilirubin” value (6 mg daily, Day 3) was 7.4 (3.1) umol/L. The ALP (6 mg daily, Day 4) was 67.8 (18.4) U/L, the ALT (6 mg daily, Day 4) was 20.9 (5.2) U/L and the AST (6 mg daily, Day 4) was 19.8 (4.7) U/L. The Albumin (6 mg daily, Day 4) was 47.0 (1.9) g/L, the GGT (6 mg daily, Day 4) was 24.0 (11.0) U/L and the “Total Bilirubin” value (6 mg daily, Day 4) was 6.9 (2.4) umol/L. For the same compound, the ALP (6 mg daily, Day 6) was 63.9 (17.8) U/L, the ALT (6 mg daily, Day 6) was 18.9 (4.4) U/L and the AST (6 mg daily, Day 6) was 19.7 (4.9) U/L. The Albumin (6 mg daily, Day 6) was 45.3 (2.7) g/L, the GGT (6 mg daily, Day 6) was 22.0 (10.8) U/L and the “Total Bilirubin” value (6 mg daily, Day 6) was 8.4 (4.0) umol/L. The ALP (6 mg daily, Day 8) was 64.6 (17.6) U/L, the ALT (6 mg daily, Day 8) was 18.6 (2.5) U/L and the AST (6 mg daily, Day 8) was 20.8 (6.2) U/L.
